Tests used:
HCT 116 cells = experiment: Cell proliferation assay (HCT 116), Cell-titer Glo; assay type: cell-based; details: Homo sapiens, 120 h incubation
Experimental: (§1) The HCT 116 cells were paved in a 96-well plate at 1200 cells, 160 μL/well. After incubating overnight, the compound solutions of gradient concentration was prepared, and 40 μL of DMSO solution of the test compound of each concentration was added to the cells of each well. The final concentration of the compound was 30000, 10000, 3333.3, 1111.1, 370.4, 123.5, 41.2, 13.7, 4.6, 0 nM (the final concentration of DMSO was 0.5%). 5% CO2 was incubated for 120 h at 37° C. 50 μL of Cell-titer Glo working solution was added to each well, shaked and mixed, and incubated at room temperature for 10 minutes. The multi-functional microplate reader read the luminescence value, and converted the luminescence value reading into inhibition percentage. Inhibition percentage=(maximum value−reading)/(maximum value−minimum value)*100.
The “maximum value” was the DMSO control, the “minimum value” indicated the cell-free control group.
(§2) Graphpad Prism software was used to perform curve fitting and obtain IC50 value.

ERK2 = ERK2 (Homo sapiens, UniProt P28482); experiment: Kinase assay (Caliper, FAM-labeled peptide), ERK2; assay type: biochemical
Outline: (§3)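 Kinase preincubated 10 min at room temperature with serially diluted compound before FAM-labeled peptide plus ATP added; reaction run at 28 °C, then stopped. Substrate conversion read by Caliper mobility shift, normalized to DMSO and low controls, curve-fitted for IC50.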

COLO205 cells = experiment: Cell proliferation assay (COLO205), Cell-titer Glo; assay type: cell-based; details: Homo sapiens, COLO 205, 120 h incubation
Experimental: as §1, with “COLO205” for “The HCT 116”, “spread into” for “paved in”, “135 μL/well at 2000 cells.” for “1200 cells, 160 μL/well.”, “overnight,” for “overnight, the”, “added 15” for “40”, “concentration” for “concentration was added”
The “maximum value” was the DMSO control, the “minimum value” indicates the cell-free control group.
as §2

ERK1 = ERK1 (Homo sapiens, UniProt P27361); experiment: Kinase assay (Caliper, FAM-labeled peptide), ERK1; assay type: biochemical
Outline: as §3

ERK2, sequence (P28482 whole entry): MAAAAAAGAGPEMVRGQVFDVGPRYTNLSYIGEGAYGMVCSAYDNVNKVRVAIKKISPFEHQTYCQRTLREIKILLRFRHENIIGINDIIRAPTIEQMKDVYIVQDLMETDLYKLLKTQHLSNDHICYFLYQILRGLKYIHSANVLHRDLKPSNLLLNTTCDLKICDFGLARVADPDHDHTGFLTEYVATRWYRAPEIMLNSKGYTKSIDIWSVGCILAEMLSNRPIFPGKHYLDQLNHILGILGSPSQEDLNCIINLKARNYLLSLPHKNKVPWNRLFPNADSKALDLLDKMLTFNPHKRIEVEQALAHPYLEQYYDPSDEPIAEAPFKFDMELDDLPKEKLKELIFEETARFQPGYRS
ERK1, sequence (P27361 whole entry): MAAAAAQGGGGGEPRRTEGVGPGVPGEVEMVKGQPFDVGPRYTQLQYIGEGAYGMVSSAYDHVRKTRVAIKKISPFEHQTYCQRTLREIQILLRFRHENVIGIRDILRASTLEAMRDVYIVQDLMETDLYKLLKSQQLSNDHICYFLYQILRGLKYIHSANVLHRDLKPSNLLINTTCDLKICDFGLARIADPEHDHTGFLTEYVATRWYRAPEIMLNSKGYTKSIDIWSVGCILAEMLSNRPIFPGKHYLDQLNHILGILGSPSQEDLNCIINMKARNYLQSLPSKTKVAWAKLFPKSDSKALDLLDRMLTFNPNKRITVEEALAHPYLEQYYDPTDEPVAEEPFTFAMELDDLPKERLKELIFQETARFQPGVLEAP

SMILES	IC50 (HCT 116 cells) [nM]	IC50 (ERK2) [nM]	IC50 (COLO205 cells) [nM]	IC50 (ERK1) [nM]
CC(C)Nc1cc(-c2cc3n(c2)CC(CO)(CO)CN(Cc2cc(F)ccc2CO)C3=O)c(Cl)cn1 [Example 29, 8-(5-chloro-2-(isopropylamino)pyridin-4-yl)-2-(5-fluoro-2-(hydroxymethyl)benzyl)-4,4-bis (hydroxymethyl)-2,3,4,5-tetrahydro-1h-pyrrolo[1,2-a][1,4] diazepine-1-one]	6.3	0.83	7.6	0.68
COC[C@H]1Cn2cc(-c3nc(Nc4ccnn4C)ncc3C)cc2C(=O)N1Cc1cc(F)ccc1CO [Example 35, (R)-2-(5-fluoro-2-(hydroxymethyl)benzyl)-3-(methoxymethyl)-7-(5-methyl-2-((1-methyl-1H-pyrazol-5-yl)amino)pyrimidin-4-yl)-3,4-dihydropyrrolo[1,2-a]pyrazine-1(2H)-one]	10.4	0.48	16.6	0.84
COC[C@H]1Cn2cc(-c3cc(Nc4ccnn4C)ncc3Cl)cc2C(=O)N1Cc1cc(F)ccc1CO [Example 45, (R)-7-(5-chloro-2-((1-methyl-1H-pyrazol-5-yl)amino)pyridin-4-yl)-2-(5-fluoro-2-(hydroxymethyl)benzyl)-3-(methoxymethyl)-3,4-dihydropyrrolo[1,2-a]pyrazine-1(2H)-one]	6.2	1.2	3.3	0.9
Cn1nccc1Nc1cc(-c2cc3n(c2)CCN(Cc2cc(F)ccc2CO)C3=O)c(Cl)cn1 [Example 50, 7-(5-Chloro-2-((1-methyl-1H-pyrazol-5-yl)amino)pyridin-4-yl)-2-(5-fluoro-2-(hydroxymethyl)benzyl)-3,4-dihydropyrrolo[1,2-a]pyrazine-1(2H)-one]	6.5	0.89	11.3	0.72
COC[C@H]1Cn2cc(-c3cc(NC4CCOCC4)ncc3Cl)cc2C(=O)N1Cc1cc(F)ccc1CO [Example 62, (R)-7-(5-chloro-2-((tetrahydro-2h-pyran-4-yl)amino)pyridine-4-yl)-2-(5-fluoro-2-(hydroxymethyl)benzyl)-3-(methoxymethyl)-3,4-dihydropyrrolo[1,2-a] pyrazine-1(2H)-one]	7.99	0.39	17.5	0.93
COC[C@H]1Cn2cc(-c3cc(Nc4ccnn4C)ncc3Cl)cc2C(=O)N1Cc1cc(F)c(F)cc1CO [Example 95, (R)-7-(5-chloro-2-((1-methyl-1h-pyrazole-5-yl)amino)pyridine-4-yl)-2-(4,5-difluoro-2-(hydroxymethyl)benzyl)-3-(methoxymethyl)-3,4-dihydropyrrolo[1,2-a] pyrazine-1(2H)-one]	6.9	0.9	6.9	
COC[C@H]1Cn2cc(-c3cc(Nc4ccnn4C)ncc3Cl)cc2C(=O)N1Cc1ccc(F)cc1CO [Example 99, (R)-7-(5-chloro-2-((1-methyl-1h-pyrazole-5-yl)amino)pyridine-4-yl)-2-(4-fluoro-2-(hydroxymethyl)benzyl)-3-(methoxymethyl)-3,4-dihydropyrrolo[1,2-a] pyrazine-1(2H)-one]	18		21.7	
COC[C@H]1Cn2cc(-c3cc(Nc4ccnn4C)ncc3C(F)(F)F)cc2C(=O)N1Cc1cc(F)ccc1CO [Example 100, (R)-2-(5-fluoro-2-(hydroxymethyl)benzyl)-3-(methoxymethyl)-7-(2-((1-methyl-1h-pyrazole-5-yl)amino)-5-(trifluoromethyl)pyridin-4-yl)-3,4-dihydropyrrolo [1,2-a]pyrazine-1(2H)-one]	19.9		19	
COC[C@H]1Cn2cc(-c3cc(Nc4ccnn4C)ncc3C)cc2C(=O)N1Cc1cc(F)ccc1CO [Example 102, (R)-2-(5-fluoro-2-(hydroxymethyl)benzyl)-3-(methoxymethyl)-7-(5-methyl-2-((1-methyl-1h-pyrazole-5-yl)amino)pyridine-4-yl)-3,4-dihydropyrrolo[1,2-a] pyrazine-1(2H)-one]	11.6		6.4	
O=C1c2cc(-c3cc(NC4CCOCC4)ncc3Cl)cn2CCN1Cc1cc(F)ccc1CO [Example 126, 7-(5-chloro-2-((tetrahydro-2h-pyran-4-yl)amino)pyridine-4-yl)-2-(5-fluoro-2-(hydroxymethyl)benzyl)-3,4-dihydropyrrolo[1,2-a] pyrazine-1(2H)-one]	14.3	0.32	30.3	0.57
COC[C@H]1Cn2cc(-c3nc(NC4CCOCC4)ncc3Cl)cc2C(=O)N1Cc1cc(F)ccc1CO [Example 130, (R)-7-(5-chloro-2-((tetrahydro-2h-pyran-4-yl)amino)pyrimidin-4-yl)-2-(5-fluoro-2-(hydroxymethyl)benzyl)-3-(methoxymethyl)-3.4-dihydropyrrolo[1,2-a] pyrazine-1(2H)-one]	5.3		20.4	
Cn1nccc1Nc1cc(-c2cc3n(c2)CCN(Cc2cc(F)cc(F)c2CO)C3=O)c(Cl)cn1 [Example 148, 7-(5-chloro-2-((1-methyl-1h-pyrazole-5-yl)amino)pyridine-4-yl)-2-(3,5-difluoro-2-(hydroxymethyl)benzyl)-3,4-dihydropyrrolo[1,2-a] pyrazine-1(2H)-one]	6.3	0.7	12.9	
Cn1nccc1Nc1cc(-c2cc3n(c2)CCN(Cc2cccc(F)c2CO)C3=O)c(Cl)cn1 [Example 150, 7-(5-chloro-2-((1-methyl-1h-pyrazole-5-yl)amino)pyridine-4-yl)-2-(3-fluoro-2-(hydroxymethyl)benzyl)-3,4-dihydropyrrolo[1,2-a] pyrazine-1(2H)-one]	9.5		17.8	
Cc1cnc(Nc2ccnn2C)cc1-c1cc2n(c1)CCN(Cc1cc(F)ccc1CO)C2=O [Example 152, 2-(5-fluoro-2-(hydroxymethyl)benzyl)-7-(5-methyl-2-((1-methyl-1h-pyrazole-5-yl)amino)pyridine-4-yl)-3,4-dihydropyrrolo[1,2-a] pyrazine-1(2H)-one]	7.6	0.3	14.3	
Cn1nccc1Nc1cc(-c2cc3n(c2)CCN(Cc2cc(F)c(F)cc2CO)C3=O)c(Cl)cn1 [Example 160, 7-(5-chloro-2-((1-methyl-1h-pyrazole-5-yl)amino)pyridine-4-yl)-2-(4,5-difluoro-2-(hydroxymethyl)benzyl)-3,4-dihydropyrrolo[1,2-a] pyrazine-1(2H)-one]	10.7	0.89	11.4	
COC[C@H]1Cn2cc(-c3nc(Nc4ccnn4C)ncc3C(F)(F)F)cc2C(=O)N1Cc1cc(F)ccc1CO [Example 163, (R)-2-(5-fluoro-2-(hydroxymethyl)benzyl)-3-(methoxymethyl)-7-(2-((1-methyl-1h-pyrazole-5-yl)amino)-5-(trifluoromethyl)pyrimidin-4-yl)-3,4-dihydropyrrolo[1,2-a] pyrazine-1(2H)-one]	18.8	0.62	15.4	
COC[C@H]1Cn2cc(-c3cc(Nc4ccnn4C)ncc3Cl)cc2C(=O)N1Cc1cc(F)c(F)c(F)c1CO [Example 168, (R)-7-(5-chloro-2-((1-methyl-1h-pyrazole-5-yl)amino)pyridine-4-yl)-3-(methoxymethyl)-2-(3,4,5-fluoro-2-(hydroxymethyl)benzyl)-3,4-dihydropyrrolo[1,2-a] pyrazine-1(2H)-one]	8.4	0.59	11	
